Experimental data reported in patent publication US11267820B2, “Tricyclic fused pyridin-2-one derivatives and their use as BRD4 inhibitors” (JUBILANT BIOSYS LIMITED, priority 2015, dated 2022).

Test system: AML cell line MV4-11
Assay: Anticancer activity: Alamar Blue 3-day proliferation assay
Format: cell-based
Conditions: Homo sapiens, MV4-11 cells, 72h, read-out: MV4-11 EC50_μM
Procedure: The impact of the compounds on cancer cell proliferation was determined using the AML cell line MV4-11 (ATCC) in a 3-day proliferation assay. MV4-11 cells were maintained in RPMI supplemented with 10% FBS at 37° C., 5% CO2. For compound testing, MV4-11 cells were plated in a 96-well black bottom plate at a density of 15,000 cells/well in 100 μL culture media and incubated at 37° C. overnight. Compound dilution series were prepared in DMSO via a 3-fold serial dilution from 100 μM to 0.005 μM. The DMSO dilution series were then diluted with media, with the final compound concentrations added to the wells ranging from 10 μM to 0.0005 μM. […] The fluorescent readings from the Alamar Blue assay were normalized to the DMSO treated cells and analyzed using the GraphPad Prism software with siginoidal curve fitting to obtain EC50.

Compound | EC50
CCNC(=O)CC1OC(c2ccc(Cl)cc2)c2c(sc(C)c2C)-c2cn(C)c(=O)cc21 (racemic) [bb, 2-(4-(4-chlorophenyl)-2,3,9-trimethyl-8-oxo-4,6,8,9-tetrahydrothieno[2′,3′:5,6]oxepino[4,3-c]pyridin-6-yl)-N-ethylacetamide] | < 0.0005 µM
CCNC(=O)CC1OC(c2ccc(Cl)cc2)c2c(cnn2C)-c2cn(C)c(=O)cc21 (racemic) [ll, 2-(4-(4-chlorophenyl)-3,9-dimethyl-8-oxo-4,6,8,9-tetrahydro-3H-pyrazolo[4′,3′:5,6]oxepino[4,3-c]pyridin-6-yl)-N-ethylacetamide] | < 0.0005 µM
CCNC(=O)CC1N=C(CC2CC2)c2c(sc(C)c2C)-c2cn(C)c(=O)cc21 (racemic) [r, 2-(4-(cyclopropylmethyl)-2,3,9-trimethyl-8-oxo-8,9-dihydro-6H-pyrido[4,3-c]thieno[2,3-e]azepin-6-yl)-N-ethylacetamide] | 0.157 µM
CCOC(=O)CC1N=C(c2ccc(Cl)cc2)c2c(cnn2C)-c2cn(C)c(=O)cc21 (racemic) [w, Ethyl 2-(4-(4-chlorophenyl)-3,9-dimethyl-8-oxo-3,6,8,9-tetrahydropyrazolo[3,4-c]pyrido[3,4-e]azepin-6-yl)acetate] | 0.026 µM

Continued, values first:

EC50 | Compound
0.43 µM | CCOC(=O)CC1N=C(c2ccc(Cl)cc2)c2nc(C)sc2-c2cn(C)c(=O)cc21 (racemic) [l, Ethyl 2-(4-(4-chlorophenyl)-2,9-dimethyl-8-oxo-8,9-dihydro-6H-pyrido[4,3-c]thiazolo[5,4-e]azepin-6-yl)acetate]
0.14 µM | CCNC(=O)CC1N=C(c2ccc(Cl)cc2)c2nc(C)sc2-c2cn(C)c(=O)cc21 (racemic) [m, 2-(4-(4-chlorophenyl)-2,9-dimethyl-8-oxo-8,9-dihydro-6H-pyrido[4,3-c]thiazolo[5,4-e]azepin-6-yl)-N-ethylacetamide]
0.017 µM | CCNC(=O)CC1N=C(c2ccc(Cl)cc2)c2cc(OC)ncc2-c2cn(C)c(=O)cc21 (racemic) [t, 2-(7-(4-chlorophenyl)-9-methoxy-2-methyl-3-oxo-3,5-dihydro-2H-dipyrido[4,3-c:3′,4′-e]azepin-5-yl)-N-ethylacetamide]
